# Entries after “also recorded” stand apart in the source; their conditions may differ. Like-named read-outs stand apart in the source and are kept apart here.
# What was measured:
# [1] = test system: human colon cancer HT-29 cells implanted in NCr nu/nu mice; settings: ip once daily for four days; for activity in in vivo hollow fiber assay (HT-29 cell growth): 5.0-20.0 mg/kg; for toxicity in mice of the hollow fiber assay: up to 20.0 mg/kg
# Method: Mice were treated with the indicated doses of 1 once a day by intraperitoneal injection from day 3 to day 6 after implantation of the HT-29 cells facilitated in hollow fibers.
# In Vivo Hollow Fiber Assay. […] The human colon cancer cell line HT-29 was used to evaluate 1 using procedures previously described (Mi Q et al. J. Nat. Prod 2009, 72,573-580; Pearce C J et al. Methods Mol. Biol, 2012, 944, 267-277). Eight- to nine-week-old immunodeficient NCr nu/nu mice were purchased from The Jackson Laboratory (Bar Harbor, Me., USA) and housed in microisolation cages at room temperature and a relative humidity of 50-60% under 12:12 h light-dark cycle. […] The mixture was diluted with distilled water to 13% DMSO and 25% CREMOPHOR™. The mice were injected ip once daily for four days with 1 or the positive control (paclitaxel). Each mouse was weighed daily during the study. […] The fibers were retrieved and viable cell mass was evaluated by a modified MTT (3-(4,5-dimethylthiazol-2-yl)-2,5-diphenyltetrazolium bromide) assay. The percentage of the net growth for the cells in each treatment group was calculated by subtracting the day 0 absorbance from the day 7 absorbance and dividing this difference by the net growth in the vehicle control (minus value between the day 7 and the day). Data were compared by the Student's t test, and a p value less than 0.05 was considered statistically significant.
# Immunodeficient NCr nu/nu mice implanted with human colon cancer HT-29 cells placed in hollow fibers were treated once daily by 1 at doses of 5.0, 10.0, 15.0, or 20.0 mg/kg, or the vehicle control, or paclitaxel (5 mg/kg), by intraperitoneal (ip) injection tier four days. The relative FIT-29 cell growth values from all mice were calculated.
# HT-29 cells = assay: Annexin V staining apoptosis assay; settings: for HT-29 cell apoptosis at the late-stage / HT-29 cells undergoing early apoptosis: 72 h
# Method: Lower left quadrant: the percentage of viable cells; lower right quadrant: the percentage of apoptotic cells; upper left quadrant: the percentage of necrotic cells; upper right quadrant: the percentage of the late-stage apoptotic or dead cells.
# Annexin V Staining Method. […] The cells were washed with Annexin V binding buffer, centrifuged at 300×g for 10 min, and suspended (1×10^6) in 100 μL, of 1× Annexin V binding buffer. Then, 10 μL of Annexin fluorochrome was added to the suspension. After the suspension was mixed and incubated in a dark room at room temperature for 15 min, the cells were centrifuged, and the cell pellet was resuspended (1×10^6) in 100 μL of 1× Annexin V binding buffer. Next, 10 μL of Anti-Biotin-APC were added, and the cells incubated at 4-8° C. in a dark room for 10 min were centrifuged, The cell pellet was resuspended (1×10^6) in 500 μL of 1× Annexin V Binding Buffer. After 5 μg/mL of 7-AAD solution was added in the suspension, flow cytometry was conducted immediately.
# topo IIα = topo IIα (Homo sapiens, UniProt P11388); assay: Topoisomerase II assay (DNA cleavage/relaxation); type: biochemical; settings: 100 μM test compound
# Source text: The formation of linear DNA was detected by separating the SDS-treated reaction products using ethidium bromide gel electrophoresis and quantified by accounting for the relationship between fluorescence and relative band intensity for open circular (OC), linear (LNR), supercoiled (SC), and relaxed (RLX) configurations of DNA.
# Topoisomerase II Assay. […] The formation of linear DNA was detected by separating the SDS-treated reaction products using ethidium bromide gel electrophoresis by a modification of a previously described procedure (Hasinoff B B et al. Mol. Pharmacol. 2005, 67, 937-947). In this system, topo II-mediated catalytic conversion of supercoiled pBR322 DNA to the “relaxed” form of plasmic' DNA can also be observed. A 20 μL cleavage assay reaction mixture contained 250 ng topo IIα protein, 160 ng pBR322 plasmid DNA (NEB, Ipswich, Mass.), 1.0 mM ATP in assay buffer (10 mM Tris-HCl (pH 7.5), 50 mM KCl, 50 mM NaCl, 0.1 mM EDTA, 5 mM MgCl2, 2.5% glycerol), and 100 μM of test compounds or DMSO solvent, as indicated. Assay buffer (17 μL) and test compound/DMSO (1 μL) were mixed and allowed to sit at room temperature for 30 min after which 2 μL of topo IIα was added to initiate the reaction. Tubes were incubated at 37° C. for 15 min, and then quenched with 1% (v/v) SDS/10 mM disodium EDTA/200 mM NaCl. The mixture was treated subsequently with 0.77 mg/mL proteinase K (Sigma) at 55° C. for 60 min to digest the protein, and DNA bands were separated by electrophoresis (18 h at 2 V/cm) on an agarose gel (1.3% w/v) containing 0.7 μg/mL ethidium bromide in TAE buffer pH 8.0 (40 mM Tris base, 0.114% (v/v) glacial acetic acid, 2 mM EDTA). The DNA in the gel was imaged by its fluorescence on a Chemi-Doc XRS+ imager (Bio-Rad, Hercules, Calif.). Linear DNA was quantified by accounting for the relationship between fluorescence and relative band intensity for open circular (QC), linear (LNR), supercoiled (SC), and RLX (relaxed) configurations of DNA (Projan S J et al. Plasmid 1983, 9, 182-190), then calculating % of LNR from the total DNA content in each lane.
# [2] = test system: CCD-112CoN normal human colon cells; assay: Cytotoxicity against CCD-112CoN cells; settings: for IC50: read-out: IC50 values toward the CCD-112 CoN cells
# Source text: Following a previous procedure (Still P C et al. J. Nat. Prod. 2013, 76, 243-249) and the method for screening cytotoxicity towards HT-29 cells mentioned above, the cytotoxicity of the samples was screened against CCD-112CoN normal human colon cells.
# [3] = test system: HT-29 human colon cancer cells; assay: Cytotoxicity against HT-29 cells
# Method: (§1) The cytotoxicity of the test compounds was screened against HT-29 cells by a previously reported procedure (Ren Y et al. J. Nat. Prod 2011, 74, 1117-1125). Paclitaxel and etoposide were used as positive controls.
# (§2) All arylnaphthalene lignans isolated from P. poilanet in the present study and their semi-synthetic analogues were evaluated for their cytotoxicity against HT-29 human colon cancer cells, using paclitaxel as the positive control (Table 6) (Ren Y et al. J. Nat. Prod 2011, 74, 1117-1125).
# [4] = test system: HT-29 human colon cancer cells
# Method: as §1, §2
# [5] = read-out: IC50 values toward the HT-29 cells, Table 6, triplicate, two independent experiments
# [6] = Homo sapiens, HT-29, read-out: IC50 values toward the HT-29 cells
# Sequence of topo IIα (P11388 whole entry): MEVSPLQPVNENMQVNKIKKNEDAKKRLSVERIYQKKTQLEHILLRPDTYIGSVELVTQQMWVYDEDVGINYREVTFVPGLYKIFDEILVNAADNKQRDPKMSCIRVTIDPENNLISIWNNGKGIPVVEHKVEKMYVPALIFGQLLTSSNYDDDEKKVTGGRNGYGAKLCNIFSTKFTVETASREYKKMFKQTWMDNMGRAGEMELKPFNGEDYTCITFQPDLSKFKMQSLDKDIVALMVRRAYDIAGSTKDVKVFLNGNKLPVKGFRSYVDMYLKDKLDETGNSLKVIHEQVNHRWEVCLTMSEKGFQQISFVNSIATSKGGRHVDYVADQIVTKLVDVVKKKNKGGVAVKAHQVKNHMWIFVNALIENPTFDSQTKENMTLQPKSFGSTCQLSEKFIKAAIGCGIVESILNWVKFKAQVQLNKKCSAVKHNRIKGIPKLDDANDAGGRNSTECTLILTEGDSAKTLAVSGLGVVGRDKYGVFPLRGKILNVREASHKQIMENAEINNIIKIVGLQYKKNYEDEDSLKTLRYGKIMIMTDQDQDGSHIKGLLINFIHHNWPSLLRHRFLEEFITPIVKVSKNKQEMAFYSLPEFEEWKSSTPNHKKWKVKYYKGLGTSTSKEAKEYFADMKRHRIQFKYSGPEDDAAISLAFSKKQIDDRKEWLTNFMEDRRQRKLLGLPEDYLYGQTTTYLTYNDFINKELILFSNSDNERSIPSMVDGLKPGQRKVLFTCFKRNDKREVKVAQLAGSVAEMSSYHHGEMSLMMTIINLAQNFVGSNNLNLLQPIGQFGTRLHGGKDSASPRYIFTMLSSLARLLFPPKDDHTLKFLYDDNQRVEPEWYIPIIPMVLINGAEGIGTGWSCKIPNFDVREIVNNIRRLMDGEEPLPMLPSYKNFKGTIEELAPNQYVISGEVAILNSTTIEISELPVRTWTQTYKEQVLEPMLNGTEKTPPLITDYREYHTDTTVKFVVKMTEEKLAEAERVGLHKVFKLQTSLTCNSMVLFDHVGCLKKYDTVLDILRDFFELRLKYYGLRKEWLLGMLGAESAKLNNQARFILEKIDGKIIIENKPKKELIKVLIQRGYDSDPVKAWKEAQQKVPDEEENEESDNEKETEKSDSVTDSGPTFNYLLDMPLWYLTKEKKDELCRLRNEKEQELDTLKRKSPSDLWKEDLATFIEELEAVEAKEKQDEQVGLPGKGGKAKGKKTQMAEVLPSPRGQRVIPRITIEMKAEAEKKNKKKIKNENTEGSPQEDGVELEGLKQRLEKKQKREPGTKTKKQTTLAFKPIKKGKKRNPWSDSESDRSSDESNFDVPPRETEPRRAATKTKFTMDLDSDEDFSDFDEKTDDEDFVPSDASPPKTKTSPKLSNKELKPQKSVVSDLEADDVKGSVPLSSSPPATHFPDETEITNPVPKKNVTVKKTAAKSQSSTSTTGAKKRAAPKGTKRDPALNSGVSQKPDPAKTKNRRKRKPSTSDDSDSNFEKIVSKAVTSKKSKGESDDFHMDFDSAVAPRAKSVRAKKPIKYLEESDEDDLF
smiles,measurement,setting,value
"COc1cc2c(O[C@@H]3OC[C@H](OC(C)=O)[C@H](OC(C)=O)[C@H]3O)c3c(c(-c4ccc5c(c4)OCO5)c2cc1OC)C(=O)OC3 [Compound 1, 7-O-[(3,4-di-O-acetyl)-α-L-arabinopyranosyl] diphyllin]",activity in in vivo hollow fiber assay (HT-29 cell growth),[1],showed activity; also recorded: dose dependent tendency; also recorded: active; also recorded: antitumor efficacy in vivo
same,activity in in vivo hollow fiber assay (HT-29 cell growth),[1]; listed as Phyllanthusmin D,active
same,toxicity in mice of the hollow fiber assay,[1],no signs of toxicity; also recorded: No gross toxicity; also recorded: without any gross toxicity
same,toxicity in mice of the hollow fiber assay,[1]; listed as Phyllanthusmin D,no signs of gross toxicity
same,HT-29 cell apoptosis induction (in words),HT-29 cells,inducing tumor cell apoptosis; also recorded: induction of tumor cell apoptosis; also recorded: can induce HT-29 cell apoptosis
same,HT-29 cell apoptosis at the late-stage,HT-29 cells; 1 μM,27.3%
same,HT-29 cells undergoing early apoptosis,HT-29 cells; 1 μM,28.2%
same,HT-29 cell apoptosis at the late-stage,HT-29 cells; 5 μM,38.0%
same,HT-29 cells undergoing early apoptosis,HT-29 cells; 5 μM,30.3%
same,topo IIα inhibition (in words),topo IIα,did not inhibit DNA topoisomerase IIα activity; also recorded: not topo Ha inhibitors; also recorded: no inhibitory activity against topo IIα; also recorded: not topo IIα inhibitors
same,cytotoxicity toward CCD-112CoN human normal colon cells (in words),[2],non-cytotoxic
same,IC50,[2]; Table 6,> 100000 nM
same,EC50,"[3]; read-out: ED50, toxicity towards HT-29 cells, natural samples",170 nM
same,IC50,"[3]; read-out: IC50, cytotoxicity toward HT-29 cells",170 nM
"COc1cc2c(O[C@@H]3OC[C@H](O)[C@H](OC(C)=O)[C@H]3O)c3c(c(-c4ccc5c(c4)OCO5)c2cc1OC)C(=O)OC3 [Compound 2, 7-O-[(3-O-acetyl)-α-L-arabinopyranosyl] diphyllin]",IC50,[3]; [5],1800 nM
"COc1cc2c(O[C@@H]3OC[C@H](OC(C)=O)[C@H](O)[C@H]3O)c3c(c(-c4ccc5c(c4)OCO5)c2cc1OC)C(=O)OC3 [Compound 3, Phyllanthusmin B]",cytotoxicity toward HT-29 cells (in words),[4],cytotoxic
same,IC50,[3]; [5],1800 nM
"COc1cc2c(O[C@@H]3O[C@H](CO)[C@@H](O)[C@H](O)[C@H]3O)c3c(c(-c4ccc5c(c4)OCO5)c2cc1OC)C(=O)OC3 [Compound 5, Cleistanthin B]",IC50,[3]; [5],> 10000 nM
"COc1cc2c(OC)c3c(c(-c4ccc5c(c4)OCO5)c2cc1O)C(=O)OC3 [Compound 6, Phyllanthusmin A]",cytotoxicity toward HT-29 cells (in words),[4],inactive
same,IC50,[3]; [5],> 10000 nM
"COc1cc2c(O)c3c(c(-c4ccc5c(c4)OCO5)c2cc1OC)C(=O)OC3 [Compound 8, Diphyllin]",IC50,[3]; [6],7600 nM
"COc1cc([C@@H]2c3cc4c(cc3[C@@H](O[C@@H]3O[C@@H]5CO[C@@H](C)O[C@H]5[C@H](O)[C@H]3O)[C@H]3COC(=O)[C@H]23)OCO4)cc(OC)c1O [etoposide, reference compound]",HT-29 cell apoptosis at the late-stage,HT-29 cells; 1 μM,19.8%
same,HT-29 cells undergoing early apoptosis,HT-29 cells; 1 μM,12.9%
same,HT-29 cell apoptosis at the late-stage,HT-29 cells; 5 μM,25.3%
same,HT-29 cells undergoing early apoptosis,HT-29 cells; 5 μM,12.5%
same,IC50,[3]; [6],> 10000 nM
"CC(=O)O[C@H]1C(=O)[C@@]2(C)[C@H]([C@H](OC(=O)c3ccccc3)[C@]3(O)C[C@H](OC(=O)[C@H](O)[C@@H](NC(=O)c4ccccc4)c4ccccc4)C(C)=C1C3(C)C)[C@]1(OC(C)=O)CO[C@@H]1C[C@@H]2O [paclitaxel, reference compound]",IC50,"[2]; Homo sapiens, CCD-112CoN",23000 nM
same,IC50,[3]; [6],1 nM

# Reference: patent US20170119806A1, “[…] LACTONE DERIVATIVES AND METHODS OF MAKING AND USING THEREOF” (OHIO STATE INNOVATION FOUNDATION, priority 2014, published 2017)
